Data on eleven compounds can be found in US11001596B2, “7-phenylethylamino-4H-pyrimido[4,5-d][1,3]oxazin-2-one compounds as mutant IDH1 and IDH2 inhibitors” (Eli Lilly and Company, priority 2016, dated 2021).

SMILES strings stand for the structures.

One assay has as its target IDH2-R172K (Homo sapiens (Human), UniProt P48735, R172K). Kind of assay: Biochemical assay for IDH2 R172K mutant enzyme (conversion of αKG to 2HG, RapidFire MS). The settings on record: IDH2/R172K IC50, 1.2 nM enzyme, 90 minutes, pH 7.0.
In the next assay the target is IDH2-R140Q (Homo sapiens (Human), UniProt P48735, R140Q). Briefly: Biochemical assay for IDH2 R140Q mutant enzyme (conversion of αKG to 2HG, RapidFire MS). The following applies: IDH2/R140Q IC50, 1.2 nM enzyme, 90 minutes, pH 7.0.
Sequence of IDH2-R140Q (P48735 40-452 R140Q): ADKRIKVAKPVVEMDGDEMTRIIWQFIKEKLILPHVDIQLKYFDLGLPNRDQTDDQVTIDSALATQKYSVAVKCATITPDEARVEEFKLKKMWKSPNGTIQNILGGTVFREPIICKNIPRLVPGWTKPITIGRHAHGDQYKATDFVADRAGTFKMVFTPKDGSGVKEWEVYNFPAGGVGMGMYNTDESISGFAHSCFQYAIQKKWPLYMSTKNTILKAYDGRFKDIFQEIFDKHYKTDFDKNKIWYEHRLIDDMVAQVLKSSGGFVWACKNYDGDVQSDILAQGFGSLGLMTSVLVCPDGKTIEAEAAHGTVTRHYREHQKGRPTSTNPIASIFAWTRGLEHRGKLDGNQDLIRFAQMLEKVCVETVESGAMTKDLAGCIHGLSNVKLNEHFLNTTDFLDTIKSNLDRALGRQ
The target of a further assay is Wild-type IDH1 (Homo sapiens (Human), UniProt O75874). Kind of assay: Biochemical assay for wild-type IDH1 enzyme (isocitrate to αKG, LC-MS). The following applies: pH 7.5. Here is the method:
(§1) IDH1 and IDH2 enzymes catalyze the conversion of isocitrate to αKG. […] Following derivatization at room temperature for one hour, samples are extracted with 600 μL of EtOAc.

Another assay deals with Wild-type IDH2 (Homo sapiens (Human), UniProt P48735). Kind of assay: Biochemical assay for wild-type IDH2 enzyme (isocitrate to αKG, LC-MS). The settings on record: pH 7.5. The method, then:
as §1

Sequence of Wild-type IDH2 (P48735 40-452): as the sequence (P48735 40-452 R140Q) above, with Q101R counted along it
Sequence of Wild-type IDH1 (O75874 whole entry): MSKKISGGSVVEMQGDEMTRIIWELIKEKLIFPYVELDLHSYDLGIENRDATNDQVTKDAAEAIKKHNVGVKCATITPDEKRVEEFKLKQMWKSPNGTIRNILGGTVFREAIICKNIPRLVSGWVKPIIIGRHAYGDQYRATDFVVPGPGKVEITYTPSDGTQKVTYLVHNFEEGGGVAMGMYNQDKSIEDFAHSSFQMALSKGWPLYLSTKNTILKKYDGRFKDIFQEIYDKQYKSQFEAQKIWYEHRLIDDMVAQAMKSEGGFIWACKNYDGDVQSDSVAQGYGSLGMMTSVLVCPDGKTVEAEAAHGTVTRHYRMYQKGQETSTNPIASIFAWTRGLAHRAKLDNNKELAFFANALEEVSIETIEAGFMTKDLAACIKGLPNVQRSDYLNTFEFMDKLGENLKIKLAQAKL
Sequence of IDH2-R172K (P48735 40-452 R172K): as the sequence (P48735 40-452 R140Q) above, with Q101R, R133K counted along it

`C=CC(=O)N1CCN(C(CC)c2ccc([C@H](C)Nc3ncc4c(n3)N(CC)C(=O)OC4)cc2)CC1` (single isomer, unassigned) [Example 12]: the half-inhibitory concentration (IC50) (as a rule, the concentration that gives 50% inhibition) against IDH2-R172K is 0.0263 µM; at IDH2-R140Q, 0.134 µM; at Wild-type IDH1 it was 0.277 µM; against Wild-type IDH2, 3.22 µM.

For the compound `C=CC(=O)N1CCN(C(CCOC)c2ccc([C@H](C)Nc3ncc4c(n3)N(CC)C(=O)OC4)cc2)CC1` (single isomer, unassigned) [Example 14], the IC50 was determined as 0.162 µM on IDH2-R172K, 0.746 µM against IDH2-R140Q, 0.392 µM at Wild-type IDH1 and 7.4 µM on Wild-type IDH2.

With `C=CC(=O)N1CCN(C(CC(C)C)c2ccc([C@H](C)Nc3ncc4c(n3)N(CC)C(=O)OC4)cc2)CC1` (single isomer, unassigned) [Example 8], the half-inhibitory concentration (IC50) turned out to be 0.017 µM on IDH2-R172K, 0.046 µM against IDH2-R140Q, 0.237 µM at Wild-type IDH1 and 1.62 µM at Wild-type IDH2.

With `C=CC(=O)N1CCN(C(CC2CC2)c2ccc([C@H](C)Nc3ncc4c(n3)N(C)C(=O)OC4)cc2)CC1` (single isomer, unassigned) [Example 3], the IC50 against IDH2-R172K came to 0.0156 µM; against IDH2-R140Q, 0.0648 µM; at Wild-type IDH1, 0.425 µM; against Wild-type IDH2, 3.37 µM.

Turning to `C=CC(=O)N1CCN(C(CC(C)C)c2ccc([C@H](C)Nc3ncc4c(n3)N(CC)C(=O)OC4)cc2)CC1` (stereo partly drawn) [Example 6, 1-Ethyl-7-[[(1S)-1-[4-[3-methyl-1-(4-prop-2-enoylpiperazin-1-yl)butyl]phenyl]ethyl]amino]-4H-pyrimido[4,5-d][1,3]oxazin-2-one], the half-inhibitory concentration (IC50) against Wild-type IDH1 was determined as 0.0549 µM; against Wild-type IDH2, 0.493 µM.

As to `C=CC(=O)N1CCN([C@H](CC2CC2)c2ccc([C@H](C)Nc3ncc4c(n3)N(CC)C(=O)OC4)cc2)CC1` [Example 1, 7-[[(1S)-1-[4-[(1R)-2-Cyclopropyl-1-(4-prop-2-enoylpiperazin-1-yl)ethyl]phenyl]ethyl]amino]-1-ethyl-4H-pyrimido[4,5-d][1,3]oxazin-2-one], the half-maximal inhibitory concentration (IC50) on IDH2-R172K turned out to be 0.0328 µM; against IDH2-R140Q, 0.113 µM; against Wild-type IDH1, 0.0854 ± 0.107 µM; at Wild-type IDH2 it was 0.801 ± 0.745 µM.

`C=CC(=O)N1CCN(C(CC(C)C)c2ccc([C@H](C)Nc3ncc4c(n3)N(CC)C(=O)OC4)cc2)CC1` (single isomer, unassigned) [Example 7]: the half-inhibitory concentration (IC50) against IDH2-R172K came out at 0.0224 µM; at IDH2-R140Q, 0.0743 µM; against Wild-type IDH1, 0.233 µM; against Wild-type IDH2, 1.53 µM.

With `C=CC(=O)N1CCN(C(CC)c2ccc([C@H](C)Nc3ncc4c(n3)N(CC)C(=O)OC4)cc2)CC1` (single isomer, unassigned) [Example 11], the concentration for half-maximal inhibition (IC50) at IDH2-R172K was determined as 0.02 µM; against IDH2-R140Q, 0.0543 µM; at Wild-type IDH1, 0.345 µM; on Wild-type IDH2 it was 2.08 µM.

Consider `C=CC(=O)N1CCN([C@@H](CC2CC2)c2ccc([C@H](C)Nc3ncc4c(n3)N(CC)C(=O)OC4)cc2)CC1` [Example 2, 7-[[(1S)-1-[4-[(1S)-2-cyclopropyl-1-(4-prop-2-enoylpiperazin-1-yl)ethyl]phenyl]ethyl]amino]-1-ethyl-4H-pyrimido[4,5-d][1,3]oxazin-2-one], for which the IC50 on IDH2-R172K was 0.0115 µM; on IDH2-R140Q it was 0.0369 µM; on Wild-type IDH1 it was 0.105 ± 0.113 µM; on Wild-type IDH2, 0.884 ± 0.748 µM.

As for `C=CC(=O)N1CCN(C(CC2CC2)c2ccc([C@H](C)Nc3ncc4c(n3)N(C)C(=O)OC4)cc2)CC1` (single isomer, unassigned) [Example 4], the IC50 against IDH2-R172K was determined as 0.028 µM; on IDH2-R140Q, 0.0811 µM; against Wild-type IDH1 it was 0.302 µM; against Wild-type IDH2, 3.7 µM.

As for `C=CC(=O)N1CCN(C(CCOC)c2ccc([C@H](C)Nc3ncc4c(n3)N(CC)C(=O)OC4)cc2)CC1` (single isomer, unassigned) [Example 13], the 50% inhibitory concentration (IC50) is 0.039 µM against IDH2-R172K, 0.239 µM on IDH2-R140Q, 0.456 µM against Wild-type IDH1 and 7.03 µM against Wild-type IDH2.
